This note sets out measurements from patent publication US12673918B2, “Small molecule RPN13 inhibitors with antitumor properties” (The Johns Hopkins University, priority 2019, dated 2026).

Read-outs that look alike come from different tables or passages of the source.

One data set concerns SKOV3 cells. In words: XTT cytotoxicity assay, SKOV3. It counts as cell-based, human. The source says:
(§1) The impact of substituents of the aromatic ring on the potency of molecules was also examined. The presence of either an electron withdrawing group (EWG) or an electron donating group (EDG) influences the reactivity of a Michael acceptor towards the target protein but can also impact specificity/selectivity.
A general note: Formazan colour is commonly taken as a measure of viable cells.

In another data set the test system is HeLa cells. In words: XTT cytotoxicity assay, HeLa. It counts as cell-based, human.
Source text: as §1

For another data set, the target named is RPN13 (Homo sapiens, UniProt Q16186). Put plainly: Competition with RA190B labeling of 42 kDa cellular target in cell lysate. It counts as binding. Also noted: endogenous in cells; running text says HeLa) and OV2008 cell lysates. Particulars: cell lysate pre-incubated with compounds (20 μM), then RA190B; HRP-streptavidin blot. How it is done:
FIG. 1B illustrates precleared ES2 cell lysate incubated with compounds (20 μM) or vehicle (DMSO, 1:100) for 45 min and then with RA190B (5 μM) for 45 min at 4° C. by Western blot analysis. Samples were subjected to SDS-PAGE, transfer to PVDF membrane, and after probing with HRP-streptavidin, binding was detected using chemiluminescence.
FIG. 2B illustrates precleared OV2008 cell lysate incubated with compounds (20 μM) or vehicle (DMSO, 1:100) for 45 min and then with RA190B (10 μM) for 45 min at 4° C. by Western blot analysis. Samples were subjected to SDS-PAGE, transfer to PVDF membrane, and binding of HRP-streptavidin, detected using chemiluminescence.
Biotinylated RA190 (RA190B, FIG. 1A) is utilized as a probe to detect covalent binding to its cellular target(s) in detergent lysates of cancer cell lines (10). […] Here, the ability of compounds (FIG. 1A) to compete with RA190B binding to its 42 kDa cellular target (FIG. 1B) were examined. Compounds, including bortezomib as a negative control, were incubated with HeLa cell lysate and then RA190B added.
Biotin labeling Assay: Clarified cell lysate in MPER buffer was pretreated with streptavidin magna beads for 45 min at 4° C. to deplete non-specific biotinylated proteins in the cell lysate. The beads were separated and 40 μL of the pre-cleared cell lysate was incubated with compounds (20 μM) for 45 min at 4° C., and then treated with RA183B, RA190B, or RA413SB (10 μM) for 45 min at 4° C. Next, the samples were mixed with Laemmli sample buffer (BioRad) and boiled for 5 min. […] (24 V). The membrane was blocked with 5% BSA in PBST for 1 hr at RT and washed for 20 minutes (3× with PBST). Then the membrane was probed with HRP-streptavidin (1:10,000 in PBST) for 1 hr at RT, washed for 30 min (3× with PBST), and developed using HyGLO chemiluminescent detection reagent (Denville) for biotin detection.

The test system of data set [1] is high molecular weight polyubiquitinated proteins. In words: Western blot of polyubiquitinated proteins, ES2 cells. It counts as cell-based, human. Particulars: 1 μM, 4 hr. The procedure: FIG. 1C illustrates ES2 cells treated with compounds (1 μM, 4 hr), lysed and the samples probed with ubiquitin or actin-specific antibody by Western blot analysis.
Antibodies, reagents, and Western Blot Analyses: Cell lysate (10-20 μg total protein) prepared in MPER (Pierce) from each sample was subjected to SDS-PAGE, transferred to PVDF membranes and analyzed by Western blot using antibodies specific Bax (#2772, Cell Signaling), ubiquitin (P4D1, sc-8017, Santa Cruz), PARP (#9542, BD Pharmingen), actin (#66009, Protein Tech Group), Tubulin(#66031, Protein Tech Group), ADRM1/Rpn13 (D9Z1U, #12019, Cell Signaling), Lys48-linkled ubiquitin (Apu 2, 05-1307, (Millipore), Annexin V (#559763, BD pharmingen), caspase-3 (51-68655X, BD Pharmingen) at the dilutions recommended by the manufacturers, and for secondary antibodies either peroxidase-linked anti-mouse IgG or anti-rabbit IgG (GE Healthcare UK Ltd) were utilized, HRP conjugated streptavidin (N100, Thermo Fisher) at the recommended dilution (1:5000). MitoTracker Red CMXRos reagent was purchased from ThermoFisher #M7512. The blots were developed using HyGLO chemiluminescent detection reagent (Denville).

The test system of the next data set is HeLa. In words: MTT cytotoxicity assay, HeLa. Particulars: read-out: cytotoxicity IC50 HeLa, Tables 3A/4B/4C.
The next data set deals with SKOV3. In words: MTT cytotoxicity assay, SKOV3. Particulars: read-out: cytotoxicity IC50 SKOV3; Tables 3A/4B/4C; MTT assay.
For another data set, the system named is BR5-Luc. In words: MTT cytotoxicity assay, BR5-Luc. Particulars: read-out: cytotoxicity IC50 BR5-Luc, Tables 3A/4B/4C, BRCA2 − VE.
In a further data set the test system is BR5-FvB1. In words: MTT cytotoxicity assay, BR5-FvB1. Particulars: Mus musculus, read-out: cytotoxicity IC50 BR5-FvB1.
[2] abbreviates: Table 1, XTT assay, read-out: IC50 SKOV3.
Where [3] appears, read: Table 1, XTT assay, read-out: IC50 HeLa.
Setting [4] is: Table 2, read-out: IC50 SKOV3 (bridge compounds).
[5] abbreviates: Table 2, read-out: IC50 HeLa (bridge compounds).

Chain of RPN13 (Q16186 whole entry): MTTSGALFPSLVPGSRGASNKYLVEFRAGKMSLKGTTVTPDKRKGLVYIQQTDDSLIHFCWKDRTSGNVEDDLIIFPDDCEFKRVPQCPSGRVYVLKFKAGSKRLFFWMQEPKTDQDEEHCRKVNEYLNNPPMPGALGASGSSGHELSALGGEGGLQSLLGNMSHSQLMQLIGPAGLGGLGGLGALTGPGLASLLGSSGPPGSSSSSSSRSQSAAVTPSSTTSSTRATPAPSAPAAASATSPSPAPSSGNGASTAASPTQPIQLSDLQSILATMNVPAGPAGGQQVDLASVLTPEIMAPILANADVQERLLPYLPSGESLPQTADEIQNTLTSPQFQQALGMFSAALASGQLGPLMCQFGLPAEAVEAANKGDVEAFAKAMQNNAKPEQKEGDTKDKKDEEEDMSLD
Procedure for BR5-FvB1: Cell lines and cytotoxicity assays: All cell lines were obtained from the American Type Culture Collection (ATCC) and cultured in the specified medium supplemented with 10% fetal bovine serum, 100 IU/mL penicillin, and 100 μg/mL streptomycin at 37° C. in a humidified 5% CO2/95% air incubator. […] To assess drug cytotoxicity, cells were seeded at 2,500 cells/well (10,000 cells/well for MM lines) in 100 μL medium in 96-well plate and after 24 treated with compounds for 72 h, incubated according to the manufacturer's protocol with the Thiazolyl Blue Tetrazolium Bromide (Sigma, M2128) and A570 measured using a Benchmark Plus microplate spectrophotometer (BIO-RAD). IC50 data was analyzed by Graphpad Prism software. In the chirality studies the cells were treated with compounds for 48 h, and the cells were incubated and measured via the preceeding protocols.

For `Cl.NC(Cc1ccccc1)C(=O)N1CC(=Cc2ccccc2)C(=O)C(=Cc2ccccc2)C1` (stereo not drawn) [RA181], the results for the IC50 with SKOV3 cells (setting [2]) and in the data set on HeLa cells (setting [3]) were 89 nM and 63 nM, respectively. Also, the “competition with RA190B binding to 42 kDa cellular target” value (“competition with RA190B binding” for short) on RPN13 is reported as “competed labeling by RA190B to a greater extent”. In data set [1], the “accumulation of high molecular weight polyubiquitinated proteins” value (“accumulation” for short) is given as “rapid accumulation of high molecular weight polyubiquitinated proteins”.

In the case of `CC1(C)CN(C(=O)[C@@H](N)Cc2ccccc2)C/C(=C\c2ccc(Cl)c(Cl)c2)C1=O` [RA190H], the IC50 with HeLa cells (Homo sapiens, HeLa, Table 1, XTT assay, read-out: IC50 HeLa) was determined as 562 nM. Further, the “fold decreased potency compared to RA190” value in the data set on HeLa cells (cytotoxicity, Table 1 cell lines (HeLa, SKOV3)) is 6 fold. In addition, the “competition with RA190B binding” value at RPN13 was “competed labeling by RA190B to a greater extent”. The “accumulation” value in data set [1] was “only weakly caused an accumulation of high molecular weight polyubiquitinated proteins”.

`Cl.NC(Cc1ccccc1)C(=O)N1CC(=CC=Cc2ccccc2)C(=O)C(=CC=Cc2ccccc2)C1` (stereo not drawn) [RA181C]: the IC50 with SKOV3 cells (setting [2]) and in the data set on HeLa cells (setting [3]) was > 2500 nM in each case. For the same molecule, the “competition with RA190B binding” value on RPN13 was “failed to compete binding by RA190B”. Besides, the “accumulation” value in data set [1] is given as “only minimal accumulation of polyubiquitinated proteins”.

For `CC1NCC(=Cc2ccc([N+](=O)[O-])cc2)C(=O)C1=Cc1ccc([N+](=O)[O-])cc1` (racemic) [RA411], the IC50 turned out to be 16 nM in the data set with HeLa and 257 nM in the data set on SKOV3.

Take `Cl.NC(Cc1ccccc1)C(=O)N1C2CCC1C(=Cc1ccc(Cl)c(Cl)c1)C(=O)C2=Cc1ccc(Cl)c(Cl)c1` (stereo not drawn) [RA338]: the IC50 was determined as 81 nM with SKOV3 cells (setting [4]) and 66 nM in the data set with HeLa cells (setting [5]). Also, at RPN13, the “competition with RA190B binding” value is “competed labeling by RA190B to a greater extent”. Moreover, in data set [1], the “accumulation” value is listed as “rapid accumulation of high molecular weight polyubiquitinated proteins”.

Take `COc1cccc2c1C(=O)c1c(O)c3c(c(O)c1C2=O)C[C@@](O)(C(=O)CO)C[C@@H]3O[C@H]1C[C@H](N)[C@H](O)[C@H](C)O1` [DOX, Doxorubicin]: the IC50 is 237 nM in the data set with BR5-Luc and < 20 nM in the data set on BR5-FvB1.

Take `O=C1C(=Cc2ccc(Cl)c(Cl)c2)CN(C(=O)C(Cc2ccccc2)NC(=O)C(F)(F)F)CC1=Cc1ccc(Cl)c(Cl)c1` (stereo not drawn) [RA230]: the IC50 is 69 nM in the data set on SKOV3 cells (setting [2]) and 47 nM in the data set on HeLa cells (setting [3]).

As to `O=C1C(=Cc2ccc(Cl)c(Cl)c2)CN(C(=O)C(Cc2ccccc2)NS(=O)(=O)c2ccc(-c3ccno3)s2)CC1=Cc1ccc(Cl)c(Cl)c1` (stereo not drawn) [RA190IAS], the results for the IC50 in the data set with SKOV3 cells (setting [2]) and in the data set with HeLa cells (setting [3]) were 342 nM and 211 nM, respectively.

Regarding `CCC(C)C(NC(=O)C(F)(F)F)C(=O)N1CC(=Cc2ccc(Cl)c(Cl)c2)C(=O)C(=Cc2ccc(Cl)c(Cl)c2)C1` (stereo not drawn) [RA7-IleC], the figures for the IC50 with SKOV3 cells (setting [2]) and in the data set with HeLa cells (setting [3]) were 77 nM and 61 nM, respectively.

On to `O=C1C(=Cc2ccc(-c3cccnc3)cc2)C2CCC(N2)C1=Cc1ccc(-c2cccnc2)cc1` [RA332], for which the IC50 with SKOV3 cells (setting [4]) worked out at 376 nM; with HeLa cells (setting [5]), 243 nM.

With `O=C1C(=CC=Cc2ccccc2)CNCC1=CC=Cc1ccccc1` [RA-Cinn], the IC50 in the data set on SKOV3 cells (setting [2]) and in the data set on HeLa cells (setting [3]) was > 5000 nM each time.

On to `C=CC(=O)N1C2CCC1C(=Cc1ccccc1)C(=O)C2=Cc1ccccc1` [RA336], for which the IC50 is 185 nM in the data set on SKOV3 cells (setting [4]) and 146 nM in the data set with HeLa cells (setting [5]).

`O=C1C(=Cc2ccc([N+](=O)[O-])cc2)CNCC1=Cc1ccc(Cl)c(Cl)c1` [RA-asy]: the IC50 in the data set with SKOV3 cells (setting [2]) was found to be 398 nM; in the data set with HeLa cells (setting [3]) it was 312 nM.

Take `CC(=O)N[C@@H](Cc1ccccc1)C(=O)N1C/C(=C\c2ccc(Cl)c(Cl)c2)C(=O)/C(=C/c2ccc(Cl)c(Cl)c2)C1` [RA190Ac]: the IC50 amounted to 68 nM with SKOV3 cells (setting [2]) and 46 nM in the data set on HeLa cells (setting [3]).

In the case of `O=C1C(=Cc2ccc(Cl)c(Cl)c2)C2CCC(N2)C1=Cc1ccc(Cl)c(Cl)c1` [RA329], the IC50 was 471 nM in the data set with SKOV3 cells (setting [4]) and 407 nM with HeLa cells (setting [5]).

`O=C1C(=Cc2ccc(Cl)c(C(F)(F)F)c2)CNCC1=Cc1ccc(Cl)c(C(F)(F)F)c1` [RA-CTF]: the IC50 with SKOV3 cells (setting [2]) was 457 nM; in the data set with HeLa cells (setting [3]), 324 nM.

As for `O=C1C(=Cc2ccc(Cl)c(Cl)c2)CN(C(=O)C(Cc2ccccc2)NC(=O)c2cccnc2)CC1=Cc1ccc(Cl)c(Cl)c1` (stereo not drawn) [RA233], the IC50 in the data set on SKOV3 cells (setting [2]) is 98 nM; in the data set on HeLa cells (setting [3]), 76 nM.

With `O=C1C(=Cc2ccc(Cl)c(Cl)c2)CN(C(=O)C(Cc2ccccc2)NC(=O)c2cnccn2)CC1=Cc1ccc(Cl)c(Cl)c1` (stereo not drawn) [RA190PyC], the IC50 in the data set with SKOV3 cells (setting [2]) was 84 nM; in the data set on HeLa cells (setting [3]), 65 nM.

On to `CCC(C)C(N)C(=O)N1CC(=Cc2ccc(Cl)c(Cl)c2)C(=O)C(=Cc2ccc(Cl)c(Cl)c2)C1` (stereo not drawn) [RA7-Ile], for which the IC50 amounted to 101 nM in the data set on SKOV3 cells (setting [2]) and 72 nM with HeLa cells (setting [3]).

For the molecule `CC(=O)N1C2CCC1C(=Cc1ccccc1)C(=O)C2=Cc1ccccc1` [RA337], the IC50 is 231 nM in the data set with SKOV3 cells (setting [4]) and 186 nM in the data set with HeLa cells (setting [5]).

Consider `O=C1C(=Cc2ccc(Cl)c(Cl)c2)CNCC1=Cc1ccc(Cl)c(Cl)c1` [RA7], for which the IC50 in the data set on SKOV3 cells (setting [2]) stood at 654 nM; in the data set on HeLa cells (setting [3]), 532 nM.

Take `O=C1C(=Cc2ccc(Cl)c(Cl)c2)CN(C(=O)C(Cc2ccccc2)NC(=O)N2CCOCC2)CC1=Cc1ccc(Cl)c(Cl)c1` (stereo not drawn) [RA232]: the IC50 in the data set with SKOV3 cells (setting [2]) came to 77 nM; with HeLa cells (setting [3]), 61 nM.

For the molecule `O=C(CCl)NC(Cc1ccccc1)C(=O)N1CC(=Cc2csc(Br)c2)C(=O)C(=Cc2csc(Br)c2)C1` (stereo not drawn) [RA-BTPCA], the values for the IC50 with SKOV3 cells (setting [2]) and in the data set with HeLa cells (setting [3]) were 189 nM and 132 nM, respectively.

On to `NCC(=O)N1CC(=Cc2ccc(Cl)c(Cl)c2)C(=O)C(=Cc2ccc(Cl)c(Cl)c2)C1` [RA7-Gly], for which the IC50 with SKOV3 cells (setting [2]) is 78 nM; in the data set on HeLa cells (setting [3]), 65 nM.

On to `Cc1ccc(S(=O)(=O)NC(Cc2ccccc2)C(=O)N2CC(=Cc3ccc(Cl)c(Cl)c3)C(=O)C(=Cc3ccc(Cl)c(Cl)c3)C2)cc1` (stereo not drawn) [RA231], for which the IC50 turned out to be 167 nM in the data set with SKOV3 cells (setting [2]) and 111 nM in the data set with HeLa cells (setting [3]).

On to `NC(Cc1ccc(O)cc1)C(=O)N1CC(=Cc2ccc(Cl)c(Cl)c2)C(=O)C(=Cc2ccc(Cl)c(Cl)c2)C1` (stereo not drawn) [RA295], for which the values for the IC50 with SKOV3 cells (setting [2]) and in the data set on HeLa cells (setting [3]) were 116 nM and 89 nM, respectively.
